What was measured:
Monoglyceride lipase = biological target: T1, Monoglyceride lipase (Homo sapiens, UniProt Q99685); test: This medium throughput assay involved a 96-well plate format in which hMGL activity was monitored by the hydrolysis of the substrate 7-hydroxy-6-methoxy-4-methylcoumarin ester (AHMMCE) to form the fluorescent product, coumarin. […] Upon the addition of AHMMCE, the reaction was incubated at 25° C. for 120 min; fluorescence readings were taken every 15 min at 360 nm/460 nm (λexcitation/λemission) using a Synergy HT Plate Reader (Bio-Tek, Winooski, Vt.). […] External standards were used to convert relative fluorescence units to the amount of 4-methylcoumarin formed.
T1 sequence (Q99685 whole entry): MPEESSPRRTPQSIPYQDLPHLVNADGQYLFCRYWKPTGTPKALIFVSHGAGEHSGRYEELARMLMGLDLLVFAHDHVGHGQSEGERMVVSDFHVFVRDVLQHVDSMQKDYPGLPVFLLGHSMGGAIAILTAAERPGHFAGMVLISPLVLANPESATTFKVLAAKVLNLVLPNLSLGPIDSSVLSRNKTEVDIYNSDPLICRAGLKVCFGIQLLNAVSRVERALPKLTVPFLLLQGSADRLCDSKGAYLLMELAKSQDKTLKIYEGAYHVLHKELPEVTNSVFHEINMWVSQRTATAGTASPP

[1] = Fluorescent Assay: hABHD6:Initial Fluorescent Inhibition Assay (3-Point)—In each well of a 96-well plate 8 μL of membrane fraction containing full-length hABHD6 (1 μg total protein) was mixed with 168 μL of assay buffer (50 mM Tris-HCl, pH 7.6), and 20 μL of diluted compound (diluted in a dilution buffer consisting of 50% DMSO/50% assay buffer v/v). Each plate was incubated at RT for 15 minutes before adding 4 μL of 1 mM AHMMCE substrate (final concentration of 20 μM AHMMCE and final volume of 200 μL). The reaction was allowed to proceed for 1 hr at RT before the fluorescence was read at λex 360 nm and λem 460 nm and the inhibition calculated. Each experiment can test 8 compounds at three concentrations (usually 10 μM, 1 μM, and 100 nM).

| IC50 (Monoglyceride lipase) | IC50 [1] | SMILES |
| --- | --- | --- |
| > 1000 nM |  | O=C(OC(C(F)(F)F)C(F)(F)F)N1Cc2ccc(N3CCS(=O)(=O)CC3)cc2C1 |
|  | > 1000 nM | O=C(OC(C(F)(F)F)C(F)(F)F)N1CCC2(CC(OC(c3ccc(F)cc3)c3ccc(F)cc3)C2)C1 (configuration not stated) |

Source: ChEMBL document CHEMBL5727717, “ABHD6 and dual ABHD6/MGL inhibitors and their uses” (2020)
